Test results: US7223733B2, “Modulation of TRIP-Br function and method of treating proliferative disorders” (National University of Singapore, priority 2004, dated 2007)
One block for each molecule: values may come before it. [invdT] = inverted (3'-3') thymidine

Tests used:
[1] = system: FLAG-TRIP-Br1 protein; test: Immunoprecipitation assay with TB1-27#2 and peptide competition; type: binding, human; conditions: lysates of transfected U2OS cells
Method: In an immunoprecipitation assay, fifty microliters of Protein A-agarose (Amersham) were incubated with 2 ml of TB1-27#2 spent media overnight. Each aliquot of agarose was washed and added to the lysates of variously transfected U2OS cells. The TB1-27 and Cyr61 peptides were separately added into 2 of the reactions while one of the reactions was probed with mouse monoclonal anti-His antibodies instead of […]. The agarose was harvested and washed the next day, and the bound proteins analyzed by SDS-PAGE. The gel was blotted and detected with anti-FLAG antibodies. The results are shown in FIG. 23 (the left panel contains 1/10th of the input of the pre-cleared U2OS cell lysate while the right panel contains the proteins eluted from the Protein A-agarose). […] Anti-DP-1 was used as a positive control for immunoprecipitation since it is known that TRIP-Br1 interacts directly with DP-1.

[2] = system: FLAG-TRIP-Br1; test: Western blot with TB1-27#2 and peptide competition; type: binding, human; conditions: lysates of transfected U2OS cells
Method: For Western blot analysis, U2OS cells transfected with the pcDNA3 vector, pcDNA3 vector with TRIP-Br1 insert or TRIP-Br2 insert were harvested. The lysates were separated in a 10% acrylamide gel and blotted onto a transfer membrane. The blot was cut and probed with a mouse monoclonal anti-FLAG antibody or TB1-27#2. For 2 sections, TB1-27 and Cyr61 peptides were added in addition to TB1-27#2 as a source of competition.

[3] = system: caspase-3 protease activity; test: Caspase assay with Ac-DEVD-AFC in U2OS cells; type: cell-based, human; conditions: 24 h
Method: Caspase assay. Both adherent and detached cells in 6-well dishes were harvested by centrifugation at 2000 rpm for 15 min at 4° C. The resulting cell pellets were incubated in 50 μl of chilled lysis buffer (Clontech) on ice for 10 min. Cell lysates were incubated in a reaction mix containing 10 mM HEPES, 2.0 mM EDTA, 10 mM KCl, 1.5 mM MgCl2, 1.0 mM PMSF, aprotinine, pepstatin A and leupeptine (20 μM each), 6.0 mM DTT and Ac-DEVD-AFC (4.0 μg/ml). Reactions were allowed to proceed at room temperature. Fluorescence readings were taken at 15 min intervals for 1 h using a spectrofluorometer (excitation wavelength: 400 nm; emission wavelength: 505 nm).
(§1) FIG. 6: Caspase assay. (A) Caspase 3 protease activity in U2OS cells exposed to either Eto (Etoposide) for 24 h or 50 μM decoy peptides for 48 or 72 h, were assayed using the Ac-DEVD-AFC fluorogenic substrate. […] Values represent the average +/− standard deviation of two independent experiments. Control: cells cultured in normal growth medium; Vehicle: cells cultured in the presence of 0.5% DMSO; (B) Western blot analysis of PARP cleavage. U2OS cells were exposed to either Eto (Etoposide) for 24 h or 50 μM decoy peptides for 72 h. Lane 1: Vehicle cells (cultured in the presence of 0.5% DMSO for 24 h); Lane 2: 25 μM Eto; Lane 3: 250 μM Eto; Lane 4: Vehicle (cells cultured in the presence of 0.5% DMSO for 72 h); Lane 5: *SCR; Lane 6: *Br1; Lane 7: *Br2.

[4] = system: PARP cleavage; test: Western blot analysis of PARP cleavage in U2OS cells; type: cell-based, human; conditions: 25 and 250 μM, 24 h
Method: Denaturing SDS-PAGE and western blotting. Proteins from whole cell lysate and IP complexes were separated using standard denaturing polyacrylamide gel electrophoresis as described previously (Hsu, S. I. H., et al. EMBO J 20, 2273-2285 (2001)).
as §1

[5] = system: hTRIP-Br2 mRNA; test: Semi-quantitative RT-PCR of intact hTRIP-Br2 transcripts in WI-38 cells; type: cell-based, human; conditions: WI-38, 0.1 μM, 16 h post-stimulation with 10% FBS
Method: (§2) DNA enzyme transfection. WI-38 cells were rendered quiescent by cultivation in serum-free medium for 72 h before being transfected with DNA enzyme (0.1 μM) using Superfect as reported previously (Santiago, F. S., et al. Nat Med 5, 1264-1269 (1999)) in accordance to manufacturer's recommendations (Qiagen).
(§3) Semi-quantitative RT-PCR. Following various treatments, WI-38 cells in 6-well culture dish were subjected to total RNA extraction using the TRIZOL® Reagent (Life Technologies). Total RNA (4 μg) was reversed transcribed using oligo-dT and M-MLV reverse transcriptase in a total reaction volume of 20 μl. Polymerase Chain Reactions (PCR) were carried out on 3 μl cDNA sample in the presence of […] deoxyribonucleotide triphosphates (dNTPs) and 40 μM of specific primer pairs in a total reaction volume of 50 μl. […] Post-PCR samples were analyzed by agarose gel electrophoresis.
(§4) FIG. 11: (A) hTRIP-Br1 and hTRIP-Br2 expression is serum-inducible. […] At 24 h post-serum re-stimulation, semi-quantitative RT-PCR analysis was performed on total RNA to assess hTRIP-Br1 and hTRIP-Br2 expression. β-actin was included as an internal control. […] Semi-quantitative RT-PCR analysis was performed on total RNA to assess hTRIP-Br1 and hTRIP-Br2 expression. β-actin was included as an internal control. […]

[6] = system: WI-38 fibroblasts; test: Trypan blue exclusion manual cell count of serum-stimulated WI-38 cells; type: cell-based, human; conditions: WI-38, 0.1 μM, 72 h post-stimulation
Method: as §2
Cell proliferation assays. For the BrdU incorporation assays, growth-quiescent WI-38 cells in 96-well dishes were transfected with DNA enzyme and/or 100 ng of pCMV/E2F1, pCMV/DP1, pRSV/Cyclin E, or pCMV/Cdk2 and then exposed to Bromodeoxyuridine (BrdU, 100 μM) in the presence or absence of 10% FBS for 20 h. Bromodeoxyuridine (BrdU) incorporation was monitored with a calorimetric ELISA assay using a cell proliferation kit according to manufacturer's recommendations (Boehringer Mannheim). For manual cell count, growth-quiescent WI-38 cells in 24-well dishes were transfected with DNA enzyme and then exposed to 10% FBS for 72 h. The cells were rinsed with PBS, pH 7.4, and trypsinized, and 10 μl of cell suspension was taken from each sample and mixed with equal volume of trypan blue stain (Sigma, 0.4% w/v in 1×PBS). The number of unstained cells was enumerated manually using a hemocytometer. For colony formation assays, growth-quiescent WI-38 cells in 12-well dishes were transfected with DNA enzyme and then exposed to 10% FBS for 120 h. […]

[7] = system: WI-38 cells; test: BrdU incorporation, serum-induced S phase entry of WI-38 cells; type: cell-based, human; conditions: WI-38, 0.1 μM, 20 h; compared to unstimulated cells
Method: as §2
(§5) Cell proliferation assays. For the BrdU incorporation assays, growth-quiescent WI-38 cells in 96-well dishes were transfected with DNA enzyme and/or 100 ng of pCMV/E2F1, pCMV/DP1, pRSV/Cyclin E, or pCMV/Cdk2 and then exposed to Bromodeoxyuridine (BrdU, 100 μM) in the presence or absence of 10% FBS for 20 h. Bromodeoxyuridine (BrdU) incorporation was monitored with a calorimetric ELISA assay using a cell proliferation kit according to manufacturer's recommendations (Boehringer Mannheim). For manual cell count, growth-quiescent WI-38 cells in 24-well dishes were transfected with DNA enzyme and then exposed to 10% FBS for 72 h. The cells were rinsed with PBS, pH 7.4, and trypsinized, and 10 μl of cell suspension was taken from each sample and mixed with equal volume of trypan blue stain (Sigma, 0.4% w/v in 1×PBS). The number of unstained cells was enumerated manually using a hemocytometer. For colony formation assays, growth-quiescent WI-38 cells in 12-well dishes were transfected with DNA enzyme and then exposed to 10% FBS for 120 h. Cells were stained in situ with crystal violet (0.75% w/v hexamethyl-p-rosaniline chloride [SIGMA], 50% ethanol, 1.75% w/v paraformaldehyde, 0.25% w/v NaCl) for 10 min, and then rinsed thoroughly with deionized water to remove excess stains.
FIG. 13: (A) E-Br1 or E-Br2 suppresses serum-inducible S phase entry. Sub-confluent WI-38 cells were serum-starved for 72 h. Following DNA enzyme transfection, the cultures were re-stimulated with serum and allowed to proliferate in BrdU labeling medium. After 20 h, cells were assayed for BrdU incorporation with a colorimetric ELISA assay. Values represent the average of at least two independent experiments. […] Sub-confluent WI-38 cells were serum-starved for 72 h. […]

[8] = system: hTRIP-Br1 mRNA; test: Semi-quantitative RT-PCR of intact hTRIP-Br1 transcripts in WI-38 cells; type: cell-based, human; conditions: WI-38, 0.1 μM, 16 h post-stimulation with 10% FBS
Method: as §2, §3, §4

[9] = system: WI-38 cells; test: Colony formation assay of WI-38 cells (crystal violet); type: cell-based, human; conditions: WI-38, serum-induced, 72 h
Method: as §2
as §5, with “For colony formation assays, growth-quiescent WI-38 cells in 12-well dishes were transfected with DNA enzyme and then exposed to 10% FBS for 120 h.” left out
FIG. 12: (A) E-Br1 or E-Br2 inhibits cell proliferation. Sub-confluent WI-38 cells were serum-starved for 72 h. Following DNA enzyme transfection, the cultures were re-stimulated with serum and allowed to proliferate. After 72 h, cells were harvested for viable cell count analysis. 10 μl of cell suspension from each sample was mixed with equal volume of 0.4% trypan blue stain. The number of unstained cells was enumerated manually using a hemocytometer. Data represent the average of at least two independent experiments. […] (B) E-Br1 or E-Br2 suppresses colony formation. Sub-confluent WI-38 cells were serum-starved for 72 h. […]

[10] = system: U2OS cells; test: Cell cycle synchronization of U2OS cells, flow cytometry; type: cell-based, human; conditions: 75 ng/ml, 22 h, data not shown
Method: Cell synchronization and cell cycle progression analyses. U2OS cells in 6-well dishes were subjected to nocodazole treatment (75 ng/ml) for 22 h. Thereafter, the nocodazole-arrested cultures were released by washing with 1×PBS and grown in DMEM plus 10% FBS containing either vehicle (0.5% DMSO) or 20 μM decoy peptides. Cells were harvested at 4-h intervals for standard Western blot analyses. For the analysis of Geminin protein profile, mock- or cyclin E/Cdk2-transfected U2OS cells were exposed to nocodazole (75 ng/ml) at 3 h post-transfection for 22 h.

effect of competing peptide on TB1-27#2 binding to FLAG-TRIP-Br1 in immunoprecipitation [1]: abolished the binding
Molecule: DPGHTAAVAQAPPAVAS (Immunogenic peptide from human TRIP-Br1; listed as Homo sapiens) [TB1-27]
blocking of TB1-27#2 binding in Western blot [2]: able to block the binding

Molecule: COc1cc([C@@H]2c3cc4c(cc3[C@@H](O[C@@H]3O[C@@H]5CO[C@@H](C)O[C@H]5[C@H](O)[C@H]3O)[C@H]3COC(=O)[C@H]23)OCO4)cc(OC)c1O [Etoposide, etoposide, reference compound]
caspase-3 activity [3]: dose-dependent stimulation of caspase-3 activity several orders of magnitude above baseline
PARP cleavage [4]: resulted in PARP cleavage in a dose-dependent manner

Molecule: 5′-C AGCTACTGTGGCTAGCTACAACGACCTGTCAT-3′ (DNA CAGCTACTGTGGCTAGCTACAACGACCTGTCAT; DNA, 3' [invdT], backbone not given here) [E-SCR, reference compound]
serum-inducible steady-state hTRIP-Br2 mRNA level [5]: no effect
effects on WI-38 growth as compared to vehicle-treated cells [6]: no significant effects
BrdU incorporation on serum stimulation [7]: approximately twice as much BrdU
serum-inducible steady-state hTRIP-Br1 mRNA level [8]: no effect
colony forming potential [9]: colony forming potential similar to the normal and the vehicle-treated controls

Molecule: COC(=O)Nc1nc2ccc(C(=O)c3cccs3)cc2[nH]1 [nocodazole]
cells arrested at the G2/M boundary with 4N DNA content [10]: more than 90%
